In ChEMBL document CHEMBL1142055, “Quinolinium salt as a potent inhibitor of lymphocyte apoptosis” (Bioorg Med Chem Lett, 2005):

species: Mus musculus; assay: Effective concentration by cytoprotection activity on glucocorticoid-induced apoptosis in murine thymocytes was determined in vitro; assay type: functional

Point of comparison: `CO/N=C(/C[n+]1ccccc1)c1ccc(N2CCCC2)cc1`, EC50 0.28 µM. Against it:
- Cc1ccc(C(=O)C[n+]2ccccc2)cc1 — higher, > 10 µM
- CO/N=C(/C[n+]1ccccc1)c1ccc(C)cc1 — 18-fold higher, 5.1 µM
- Cc1ccc(C(=O)C[n+]2cccc3ccccc32)cc1 — higher, > 10 µM
- Cc1ccc(C(=O)Cn2c3c(sc2=N)CCCC3)cc1 — 16-fold higher, 4.4 µM
- CO/N=C(/C[n+]1cccc2ccccc21)c1ccc(N2CCCC2)cc1 — 22-fold lower, 0.013 µM
- Cc1ccc(-c2cn3c4c(sc3n2)CCCC4)cc1 — 8.9-fold higher, 2.5 µM
- CO/N=C(/Cn1c(=O)ccc2ccccc21)c1ccc(C)cc1 — higher, > 10 µM
- CO/N=C(/C[n+]1cccc2ccccc21)c1ccc(C)cc1 — within 1.5-fold, 0.35 µM
- Cc1ccc(C(=O)Cn2c(=O)ccc3ccccc32)cc1 — higher, > 10 µM
- CO/N=C(/Cn1c(=O)ccc2ccccc21)c1ccc(N2CCCC2)cc1 — higher, > 10 µM
